Data reported in patent US7977363B2, “Biphenyl-thiazolo-carboxamides” (Bayer Cropscience AG, priority 2004, dated 2011).
Read-outs that look alike come from different tables or passages of the source. Each block holds one molecule with its values, some of them ahead of it.

What was measured:
[1] = Log P determination by HPLC on reversed-phase column (EEC Directive 79/831, Annex V.A8); format: physicochemical; details: reversed-phase HPLC column (C18)
Procedure: The determination of the Log P values occurred according to EEC Directive 79/831, Annex V.A8 using HPLC (High Performance Liquid Chromatography) on a reversed-phase column (C 18). Temperature: 43° C. Eluents for determination in the acidic range (pH 2.3): 0.1% aqueous phosphoric acid, acetonitrile; linear gradient of 10% acetonitrile to 90% acetonitrile. Calibration took place using unbranched alkane-2-ones (with 3 to 16 carbon atoms) with known Log P values (the Log P values were determined on the basis of the retention times by way of linear interpolation between two consecutive alkanones).

Podosphaera leucotricha = assay: Podosphaera Test (Apple)/Protective; format: in vivo; details: 240 h, protective, evaluated 10 days after inoculation, read-out: Efficacy in %
Procedure: (§1) [table] To produce a suitable preparation of active compound, 1 part by weight of active compound is mixed with the stated amounts of solvent and emulsifier, and the concentrate is diluted with water to the desired concentration. In order to test the protective activity, young plants are sprayed with the active compound preparation at the stated application rate. After the spray coating dries, the plants are inoculated with an aqueous spore suspension of Podosphaera leucotricha. The plants are then placed in the greenhouse at approx. 23° C. and at a relative humidity of approx. 70%. The results are evaluated 10 days after the inoculation. An efficacy of 0% corresponds to that of the control, while an efficacy of 100% means that no infestation is observed.

[2] = tested on: apple scab fungus Venturia inaequalis; assay: Venturia Test (Apple)/Protective; format: in vivo; details: 240 h, protective, evaluated 10 days after inoculation, read-out: Efficacy in %
Procedure: as §1, with “conidial” for “spore”, “the apple scab fungus Venturia inaequalis and then remain in an incubation cabinet for 1 day at approx. 20° C. and 100% relative humidity.” for “Podosphaera leucotricha.”, “21°” for “23°”, “90%.” for “70%.”

Botrytis cinerea = assay: Botrytis Test (Bean)/Protective; format: in vivo; details: 48 h, protective, evaluated 2 days after inoculation, read-out: Efficacy in %
Procedure: [table] To produce a suitable preparation of active compound, 1 part by weight of active compound is mixed with the stated amounts of solvent and emulsifier, and the concentrate is diluted with water to the desired concentration. In order to test the protective activity, young plants are sprayed with the active compound preparation at the stated application rate. After the spray coating dries, 2 small pieces of agar that are infested with Botrytis cinerea are placed on each leaf. The inoculated plants are placed in a darkened chamber at 20° C. and 100% relative humidity. The size of the infestation blotches on the leaves is evaluated 2 days after the inoculation. An efficacy of 0% corresponds to that of the control, while an efficacy of 100% means that no infestation is observed.

Pyrenophora teres = Pyrenophora teres Test (Barley)/Protective; format: in vivo; details: protective, 500 g/ha, evaluated 7 days after inoculation
Procedure: [table] To produce a suitable preparation of active compound, 1 part by weight of active compound is mixed with the stated amounts of solvent and emulsifier, and the concentrate is diluted with water to the desired concentration. In order to test the protective activity, young plants are sprayed with the active compound preparation at the stated application rate. After the spray coating dries, the plants are sprayed with a conidial suspension of Pyrenophora teres. The plants remain in an incubation cabinet for 48 hours at 20° C. and 100% relative humidity. The plants are then placed in a greenhouse at a temperature of approx. 20° C. and a relative humidity of 80%. The results are evaluated 7 days after the inoculation. An efficacy of 0% corresponds to that of the control, while an efficacy of 100% means that no infestation is observed.

Alternaria solani = assay: Alternaria Test (Tomato)/Protective; format: in vivo; details: protective, 750 g/ha, evaluated 7 days after inoculation
Procedure: [table] To produce a suitable preparation of active compound, 1 part by weight of active compound is mixed with the stated amounts of solvent and emulsifier, and the concentrate is diluted with water to the desired concentration. In order to test the protective activity, young tomato plants are sprayed with the active compound preparation at the stated application rate. One day after treatment, the plants are inoculated with a spore suspension of Alternaria solani and then remain for 24 hours at 100% relative humidity and 20° C. The plants are then placed into in environment of 96% relative humidity at a temperature of 20° C. The results are evaluated 7 days after the inoculation. An efficacy of 0% corresponds to that of the control, while an efficacy of 100% means that no infestation is observed.

[3] = HPLC, C18 reversed phase, 43° C., acidic range (pH 2.3), read-out: Log P
[4] = pH 2.3, read-out: log P (pH 2.3)

chromatographic logP [1, 3]: 3.93
Structure (SMILES): Cc1nc(C(F)(F)F)c(C(=O)Nc2ccc(F)cc2-c2ccc(Cl)c(Cl)c2)s1 [Compound 2.11, N-(3′,4′-dichloro-5-fluorobiphenyl-2-yl)-2-methyl-4-(trifluoromethyl)-1,3-thiazole-5-carboxamide]

chromatographic logP [1, 3]: 3.63
Structure (SMILES): Cc1nc(C(F)F)c(C(=O)Nc2ccc(F)cc2-c2ccc(Cl)c(Cl)c2)s1 [Compound 2.12]

chromatographic logP [1, 3]: 3.43
Structure (SMILES): Cc1nc(C(F)F)c(C(=O)Nc2c(F)cccc2-c2ccc(Cl)c(Cl)c2)s1 [Compound 2.13]

chromatographic logP [1, 3]: 3.68
Structure (SMILES): Cc1nc(C(F)(F)F)c(C(=O)Nc2c(F)cccc2-c2ccc(Cl)c(Cl)c2)s1 [Compound 2.14]

chromatographic logP [1, 3]: 3.16
Structure (SMILES): Cc1nc(C(F)F)c(C(=O)Nc2c(F)cccc2-c2ccc(Cl)c(F)c2)s1 [Compound 2.16]

chromatographic logP [1, 3]: 3.36
Structure (SMILES): Cc1nc(C(F)F)c(C(=O)Nc2ccc(F)cc2-c2ccc(Cl)c(F)c2)s1 [Compound 2.17]

chromatographic logP [1, 4]: 3.67
Structure (SMILES): Cc1nc(C(F)(F)F)c(C(=O)Nc2ccc(F)cc2-c2ccc(Cl)c(F)c2)s1 [Compound 2.18, N-(4′-chloro-3′,5-difluorobiphenyl-2-yl)-2-methyl-4-(trifluoromethyl)-1,3-thiazole-5-carboxamide]

chromatographic logP [1, 3]: 3.99
Structure (SMILES): Cc1nc(C(F)(F)F)c(C(=O)Nc2ccc(F)cc2-c2ccc(Cl)c(C)c2)s1 [Compound 2.20]

chromatographic logP [1, 3]: 3.68
Structure (SMILES): Cc1nc(C(F)F)c(C(=O)Nc2ccc(F)cc2-c2ccc(Cl)c(C)c2)s1 [Compound 2.21]

chromatographic logP [1, 4]: 3.18
Structure (SMILES): Nc1ccc(F)cc1-c1ccc(Cl)c(F)c1 [III-1, 4′-chloro-3′,5-difluorobiphenyl-2-amine]

Structure (SMILES): Cc1nc(C(F)F)c(C(=O)Nc2ccc(F)cc2-c2ccc(Cl)c(Cl)c2)s1 [drawing 47]
pest or weed control at 100 g/ha (Podosphaera leucotricha): 100%

Structure (SMILES): Cc1nc(C(F)F)c(C(=O)Nc2c(F)cccc2-c2ccc(Cl)c(Cl)c2)s1 [drawing 48]
pest or weed control at 100 g/ha (Podosphaera leucotricha): 100%

Structure (SMILES): Cc1nc(C(F)(F)F)c(C(=O)Nc2ccc(F)cc2-c2ccc(Cl)c(Cl)c2)s1 [drawing 49]
pest or weed control at 100 g/ha (Podosphaera leucotricha): 100%

Structure (SMILES): Cc1nc(C(F)(F)F)c(C(=O)Nc2c(F)cccc2-c2ccc(Cl)c(Cl)c2)s1 [drawing 50]
pest or weed control at 100 g/ha (Podosphaera leucotricha): 100%

Structure (SMILES): Cc1nc(C(F)F)c(C(=O)Nc2c(F)cccc2-c2ccc(Cl)c(F)c2)s1 [drawing 51]
pest or weed control at 100 g/ha (Podosphaera leucotricha): 100%

Structure (SMILES): Cc1nc(C(F)(F)F)c(C(=O)Nc2ccc(F)cc2-c2ccc(Cl)c(F)c2)s1 [drawing 52]
pest or weed control at 100 g/ha (Podosphaera leucotricha): 100%

Structure (SMILES): Cc1nc(C(F)(F)F)c(C(=O)Nc2ccc(F)cc2-c2ccc(Cl)c(C)c2)s1 [drawing 53]
pest or weed control at 100 g/ha (Podosphaera leucotricha): 100%

Structure (SMILES): Cc1nc(C(F)F)c(C(=O)Nc2ccc(F)cc2-c2ccc(Cl)c(C)c2)s1 [drawing 54]
pest or weed control at 100 g/ha (Podosphaera leucotricha): 100%

Structure (SMILES): Cc1nc(C(F)F)c(C(=O)Nc2ccc(F)cc2-c2cccc(C)c2F)s1 [drawing 55]
pest or weed control at 100 g/ha (Podosphaera leucotricha): 94%

Structure (SMILES): Cc1nc(C(F)F)c(C(=O)Nc2ccc(F)cc2-c2ccc(Cl)c(Cl)c2)s1 [drawing 56]
pest or weed control at 100 g/ha [2]: 100%

Structure (SMILES): Cc1nc(C(F)F)c(C(=O)Nc2c(F)cccc2-c2ccc(Cl)c(Cl)c2)s1 [drawing 57]
pest or weed control at 100 g/ha [2]: 100%

Structure (SMILES): Cc1nc(C(F)(F)F)c(C(=O)Nc2ccc(F)cc2-c2ccc(Cl)c(Cl)c2)s1 [drawing 58]
pest or weed control at 100 g/ha [2]: 100%

Structure (SMILES): Cc1nc(C(F)(F)F)c(C(=O)Nc2c(F)cccc2-c2ccc(Cl)c(Cl)c2)s1 [drawing 59]
pest or weed control at 100 g/ha [2]: 100%

Structure (SMILES): Cc1nc(C(F)F)c(C(=O)Nc2c(F)cccc2-c2ccc(Cl)c(F)c2)s1 [drawing 60]
pest or weed control at 100 g/ha [2]: 100%

Structure (SMILES): Cc1nc(C(F)(F)F)c(C(=O)Nc2ccc(F)cc2-c2ccc(Cl)c(F)c2)s1 [drawing 61]
pest or weed control at 100 g/ha [2]: 100%

Structure (SMILES): Cc1nc(C(F)(F)F)c(C(=O)Nc2ccc(F)cc2-c2ccc(Cl)c(C)c2)s1 [drawing 62]
pest or weed control at 100 g/ha [2]: 100%

Structure (SMILES): Cc1nc(C(F)F)c(C(=O)Nc2ccc(F)cc2-c2ccc(Cl)c(C)c2)s1 [drawing 63]
pest or weed control at 100 g/ha [2]: 100%

Structure (SMILES): Cc1nc(C(F)F)c(C(=O)Nc2ccc(F)cc2-c2cccc(C)c2F)s1 [drawing 64]
pest or weed control at 100 g/ha [2]: 98%

Structure (SMILES): Cc1nc(C(F)F)c(C(=O)Nc2ccc(F)cc2-c2ccc(Cl)c(Cl)c2)s1 [drawing 65]
pest or weed control at 500 g/ha (Botrytis cinerea): 100%

Structure (SMILES): Cc1nc(C(F)F)c(C(=O)Nc2c(F)cccc2-c2ccc(Cl)c(Cl)c2)s1 [drawing 66]
pest or weed control at 500 g/ha (Botrytis cinerea): 100%

Structure (SMILES): Cc1nc(C(F)(F)F)c(C(=O)Nc2ccc(F)cc2-c2ccc(Cl)c(Cl)c2)s1 [drawing 67]
pest or weed control at 500 g/ha (Botrytis cinerea): 99%

Structure (SMILES): Cc1nc(C(F)(F)F)c(C(=O)Nc2c(F)cccc2-c2ccc(Cl)c(Cl)c2)s1 [drawing 68]
pest or weed control at 500 g/ha (Botrytis cinerea): 98%

Structure (SMILES): Cc1nc(C(F)F)c(C(=O)Nc2c(F)cccc2-c2ccc(Cl)c(F)c2)s1 [drawing 69]
pest or weed control at 500 g/ha (Botrytis cinerea): 100%

Structure (SMILES): Cc1nc(C(F)(F)F)c(C(=O)Nc2ccc(F)cc2-c2ccc(Cl)c(F)c2)s1 [drawing 70]
pest or weed control at 500 g/ha (Botrytis cinerea): 100%

Structure (SMILES): Cc1nc(C(F)(F)F)c(C(=O)Nc2ccc(F)cc2-c2ccc(Cl)c(C)c2)s1 [drawing 71]
pest or weed control at 500 g/ha (Botrytis cinerea): 100%

Structure (SMILES): Cc1nc(C(F)F)c(C(=O)Nc2ccc(F)cc2-c2ccc(Cl)c(C)c2)s1 [drawing 72]
pest or weed control at 500 g/ha (Botrytis cinerea): 100%

Structure (SMILES): Cc1nc(C(F)F)c(C(=O)Nc2ccc(F)cc2-c2cccc(C)c2F)s1 [drawing 73]
pest or weed control at 500 g/ha (Botrytis cinerea): 98%

Structure (SMILES): Cc1nc(C(F)F)c(C(=O)Nc2ccc(F)cc2-c2ccc(Cl)c(Cl)c2)s1 [drawing 74]
Efficacy in % (Pyrenophora teres): 100%

Structure (SMILES): Cc1nc(C(F)F)c(C(=O)Nc2c(F)cccc2-c2ccc(Cl)c(F)c2)s1 [drawing 75]
Efficacy in % (Pyrenophora teres): 100%

Structure (SMILES): Cc1nc(C(F)(F)F)c(C(=O)Nc2ccc(F)cc2-c2ccc(Cl)c(F)c2)s1 [drawing 76]
Efficacy in % (Pyrenophora teres): 100%

Structure (SMILES): Cc1nc(C(F)F)c(C(=O)Nc2ccc(F)cc2-c2ccc(Cl)c(F)c2)s1 [drawing 77]
Efficacy in % (Pyrenophora teres): 100%

Structure (SMILES): Cc1nc(C(F)F)c(C(=O)Nc2ccc(F)cc2-c2ccc(Cl)c(C)c2)s1 [drawing 78]
Efficacy in % (Pyrenophora teres): 100%

Structure (SMILES): Cc1nc(C(F)F)c(C(=O)Nc2ccc(F)cc2-c2cccc(C)c2F)s1 [drawing 79]
Efficacy in % (Pyrenophora teres): 100%

Structure (SMILES): Cc1nc(C(F)F)c(C(=O)Nc2c(F)cccc2-c2ccc(Cl)c(F)c2)s1 [drawing 80]
Efficacy in % (Alternaria solani): 100%

Structure (SMILES): Cc1nc(C(F)(F)F)c(C(=O)Nc2ccc(F)cc2-c2ccc(Cl)c(F)c2)s1 [drawing 81]
Efficacy in % (Alternaria solani): 100%

Structure (SMILES): Cc1nc(C(F)F)c(C(=O)Nc2ccc(F)cc2-c2ccc(Cl)c(F)c2)s1 [drawing 82]
Efficacy in % (Alternaria solani): 98%
